Results published in US20110262457A1, “MODULATION OF THE IMMUNE RESPONSE” (priority 2008, published 2011).
“Also recorded” adds a separate entry of the source.

Legend:
CD4+Foxp3:GFP- T cells = assay: Conversion of CD4+Foxp3:GFP- T cells into Treg with antibodies to CD3 and CD28 and TGFb1; assay type: cell-based; details: in vitro, anti-CD3/CD28, TGFβ1, FIGS. 1A, 1B
Description: FIG. 1A is a set of three FACS plots showing conversion of CD4^+Foxp3:GFP^− T cells into CD4^+Foxp3:GFP^+ Treg by stimulation with antibodies to CD3 and CD28 in the presence of TGFb1 with or without FICZ; FIG. 1b; FIG. 1B presents the data in bar graph format. FIG. 1C is a bar graph showing AHR expression in naïve T cells differentiated in vitro into TH1, TH2 or TH17 cells for four days (mean+s.d. of triplicates normalized to actin expression). FIG. 1D is a bar graph showing AHR expression in naïve T cells differentiated in vitro into TH17 for four days with the indicated cytokines (mean+s.d. of triplicates normalized to actin expression). FIG. 1E is a bar graph showing RORγt expression in naïve T cells differentiated into TH17 for four days with TGFβ1 and IL-6 alone or in combination with FICZ (mean+s.d. of triplicates normalized to actin expression). FIG. 1F is a set of nine FACS plots of frequency of IL-17^+ T cells differentiated with TGFβ1 and IL-6 alone or in combination with IL-23 and/or FICZ for four days. FIG. 1G is a bar graph showing IL-17 and FIG. 1H is a pair of bar graphs showing IL-21 (left) and IL-22 (right) levels in supernatants of cultures prepared as in 1E, as measured by ELISA after 4 days of differentiation into. […]

naive T cells = assay: In vitro TH17 differentiation of naive T cells with TGFβ1 and IL-6 (with or without IL-23); assay type: cell-based
Description: FIG. 1A is a set of three FACS plots showing conversion of CD4^+Foxp3:GFP^− T cells into CD4^+Foxp3:GFP^+ Treg by stimulation with antibodies to CD3 and CD28 in the presence of TGFb1 with or without FICZ; FIG. 1b; FIG. 1B presents the data in bar graph format. FIG. 1C is a bar graph showing AHR expression in naïve T cells differentiated in vitro into TH1, TH2 or TH17 cells for four days (mean+s.d. of triplicates normalized to actin expression). FIG. 1D is a bar graph showing AHR expression in naïve T cells differentiated in vitro into TH17 for four days with the indicated cytokines (mean+s.d. of triplicates normalized to actin expression). FIG. 1E is a bar graph showing RORγt expression in naïve T cells differentiated into TH17 for four days with TGFβ1 and IL-6 alone or in combination with FICZ (mean+s.d. of triplicates normalized to actin expression). FIG. 1F is a set of nine FACS plots of frequency of IL-17^+ T cells differentiated with TGFβ1 and IL-6 alone or in combination with IL-23 and/or FICZ for four days. FIG. 1G is a bar graph showing IL-17 and FIG. 1H is a pair of bar graphs showing IL-21 (left) and IL-22 (right) levels in supernatants of cultures prepared as in 1E, as measured by ELISA after 4 days of differentiation into.
Next, the effect of AHR activation by FICZ on in vitro TH17 differentiation was investigated using the TH17 transcription factor RORyt as a marker of TH17 differentiation.

EAE mice [1] = assay: EAE model (MOG35-55 peptide in CFA), FICZ treatment; assay type: in vivo
Description: FIG. 2A is a line graph showing development of EAE on FICZ^− or control-treated mice (mean EAE score+s.e.m.)
FIG. 2B is a pair of bar graphs showing cytokine secretion (pg/ml) triggered by MOG35-55 in splenocytes taken from FICZ or control-treated mice; left, IFNgamma, right, IL-17.
FIGS. 2C-2E are each pairs of FACS plots showing the frequency of IFNγ, (2C), IL-17 (2D) or Foxp3 (2E) in splenocytes from FICZ or control-treated mice.
The effects of FICZ were evaluated in vivo using the EAE model described in PCT International Patent Application NO. PCT/US2008/083016, and U.S. Provisional Patent Application Ser. No. 60/989,309, filed on Nov. 20, 2007.
Mice were treated with PBS (control) or […], immunized with MOG35-55 peptide in CFA and monitored for EAE development.

Hep3b cells = assay: In vivo model of hepatocellular carcinoma (Hep3b cells in athymic nude mouse reconstituted with splenocytes)
Description: FIGS. 3A and 3B are bar graphs illustrating AFP levels in HCC tumor models treated with FICZ (3A) or FICZ plus HBSAg (3B).
In this example the effects of FICZ administration on Hepatocellular Carcinoma were evaluated in a mouse model of cancer.
The present study used athymic nude mouse (N=7), a type of laboratory mouse that is hairless, lacks a normal thymus gland, and has a defective immune system because of a genetic mutation.
100 ug of frozen FICZ (BIOMOL International, Plymouth Meeting, Pa.) was dissolved in 5 ml of CREMOPHOR™ (polyethoxylated castor oil):ethanol in phosphate buffered saline (PBS), to produce a working solution of 20 ug/ml. 250 ul (5 ug total) of HBs antigen was injected in Treatment Group C. The experiments were carried out as follows:
Tumor sizes were measured in three dimensions using Vernier calipers and tumor volume was computed assuming a spherical geometry with radius equal to one-half the average tumor dimension: TV (mm^3)=d^2×D/2. Tumors were measured two times a week and mice were monitored routinely to evaluate the effects of treatment.
In addition, serum AFP levels were monitored; AFP is an accepted tumor marker of HCC.

EAE mice [2] = assay: EAE in C57BL/6 mice treated weekly with AHR-ligand nanoparticles; assay type: in vivo; details: weekly from day 0, 45 femtomoles of nanoparticles, FIG. 7
Description: FIG. 7 is a line graph showing modulation of EAE by AHR-ligand nanoparticles. EAE was induced in B6 mice (n=5), the mice were treated with nanoparticles weekly starting from day 0, and the animals were followed for signs of EAE.
To investigate the in vivo functionality of AHR-ligand loaded nanoparticles EAE was induced on naïve C57BL/6 mice and treated them, starting at day 0, weekly with 45 femtomoles of nanoparticles.

zebrafish embryos = assay: zFoxp3 and IL-17 expression in developing zebrafish embryos; assay type: in vivo, zebrafish (Danio rerio); details: treatment of developing zebrafish embryos
Description: FIG. 4D is a bar graph showing the effect of a specific morpholino antisense oligonucleotide against Foxp3 on IL-17 expression in zebrafish.
Zebrafish eggs were collected within 1 hr of spawning, and purified plasmids or morpholino antisense oligonucleotides were microinjected with a fine glass needle connected to an automatic injector. A morpholino oligonucleotide designed to block the translation of zFoxp3 (5′-[…]-3′) and a 5 bases mismatch control oligonucleotide (5′-GTcTTCgAGTAcCATTAAcAAGgAT-3′) were designed and synthesized by Gene Tools (Philomath, Oreg.). Each morpholino nucleotide was injected into the yolk of embryos at one to four cell stages.

AHR = molecular target: T1, AHR (Homo sapiens, UniProt P35869); assay: AHR reporter luciferase construct in HEK 293 cells (dual luciferase assay); assay type: cell-based; details: different concentrations, normalised to Tk-Renilla, FIG. 8
T1 construct: endogenous in cells
T1 sequence (P35869 11-848): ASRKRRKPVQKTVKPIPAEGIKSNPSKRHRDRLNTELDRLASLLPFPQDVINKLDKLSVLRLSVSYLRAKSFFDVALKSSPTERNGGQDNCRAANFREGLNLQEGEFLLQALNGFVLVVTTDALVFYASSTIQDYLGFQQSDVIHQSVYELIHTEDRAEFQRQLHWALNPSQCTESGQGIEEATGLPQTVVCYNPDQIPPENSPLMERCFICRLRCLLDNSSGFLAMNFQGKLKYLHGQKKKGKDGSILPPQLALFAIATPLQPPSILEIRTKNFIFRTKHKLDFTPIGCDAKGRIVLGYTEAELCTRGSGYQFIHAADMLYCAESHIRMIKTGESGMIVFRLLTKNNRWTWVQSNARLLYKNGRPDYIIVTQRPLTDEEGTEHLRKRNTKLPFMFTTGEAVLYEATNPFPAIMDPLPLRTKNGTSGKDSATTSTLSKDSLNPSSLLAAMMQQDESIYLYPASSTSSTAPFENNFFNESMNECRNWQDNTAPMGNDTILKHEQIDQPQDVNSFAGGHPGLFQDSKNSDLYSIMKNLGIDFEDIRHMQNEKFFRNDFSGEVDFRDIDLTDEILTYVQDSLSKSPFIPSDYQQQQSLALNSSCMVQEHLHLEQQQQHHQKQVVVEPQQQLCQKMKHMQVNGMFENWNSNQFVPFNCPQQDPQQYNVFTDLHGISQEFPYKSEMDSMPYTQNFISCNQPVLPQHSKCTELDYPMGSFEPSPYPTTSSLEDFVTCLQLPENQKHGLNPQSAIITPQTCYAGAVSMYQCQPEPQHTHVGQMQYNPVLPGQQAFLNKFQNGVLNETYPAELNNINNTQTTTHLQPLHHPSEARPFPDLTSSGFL
Description: FIG. 8 is a bar graph showing fluorescence in 293 cells transfected with an AHR reporter luciferase construct and a TK-Renilla Luciferase construct for normalization purposes. The cells were incubated with different concentrations of the AHR ligand TCDD and activation of the AHR reporter was followed by monitoring fluorescence from the luciferase.
A construct coding for Foxp3 fused to Renilla luciferase (Ren) was created to provide a simple assay to identify compounds that increase expression of AHR (and thus increase luciferase expression and fluorescence as compared to a control) or that decrease expression of AHR (and thus decrease luciferase expression and fluorescence as compared to a control). HEK 293 cells were transfected as described (Bettelli et al., Proc Natl Acad Sci USA 102, 5138-5143 (2005)) with the AHR reporter luciferase construct and a TK-Renilla Luciferase construct for normalization purposes.
The cells were incubated with different concentrations of the AHR ligand
TCDD and activation of the AHR reporter was assayed using the dual luciferase assay kit ([…].). Tk-Renilla was used for standardization.

T cells = assay: Th17 differentiation of T cells with antibodies to CD3 and CD28, TGF-beta and IL-21; IL-17 by real time PCR; assay type: cell-based; details: 100 nM, compared with FICZ, FIG. 9
Description: FIG. 9 is a bar graph T cells differentiation into Th17 cells by in vitro activation with antibodies to CD3 and CD28 in the presence of TGF-beta and IL-21, in the presence of or not of showing beta-naphthoflavone (bNF) or FICZ (100 nM). IL-17 production was measured by real time PCR.
Briefly, T cells were differentiated into Th17 cells by in vitro activation with antibodies to CD3 and CD28 in the presence of TGF-beta and IL-21 as described (Nature 2008; 454(7202):350-2), in the presence or not of bNF or FICZ (100 nM). IL-17 production was measured by real time PCR.

## O=Cc1c2c(cc3c1=Nc1ccccc1-3)=Nc1ccccc1-2 [FICZ, 6-formylindolo[3,2-b]carbazole]
CD4+Foxp3:GFP- T cells
  differentiation of Treg triggered by TGFβ1: interfered with the differentiation of Treg
Naive T cells; FICZ alone, four days, FIG. 1E
  expression levels of the TH17 transcription factor RORγt: did not significantly upregulate
Naive T cells; with TGFβ1, IL-6 and IL-23, four days, FIGS. 1F-1H
  TH17 differentiation in vitro (IL-17+ T cells, IL-17, IL-21, IL-22 levels): synergized with TGFβ1, IL-6 and IL-23 to drive TH17 differentiation
EAE mice [1]; EAE mice
  Mean day of onset (Mean ± SD): 13.3 ± 1.5
  Mean maximum score (mean ± SD): 2.7 ± 1.8
EAE mice [1]; mice, single dose of 1 μg/mouse, FIG. 2A
  EAE development: significant worsening of EAE; also recorded: worsens EAE
EAE mice [1]; splenocytes from treated EAE mice, FIG. 2E
  frequency of CD4+Foxp3+ Treg: decrease in the frequency
EAE mice [1]; splenocytes from treated EAE mice, FIGS. 2C, 2D
  frequencies of IL-17+ CD4+ and CD4+IFNγ+ T cells: increased frequencies
EAE mice [1]; splenocytes from treated mice, in vitro stimulation with MOG35-55, FIG. 2B
  secretion of IL-17 and IFNγ: increased secretion
Hep3b cells; IP twice a week, caliper measurement
  tumor growth (tumor volume): suppressed tumor growth
Hep3b cells; seven and 14 days after treatment initiation, FIGS. 3A, 3B
  tumor growth as measured by serum AFP levels: significantly suppresses tumor growth
EAE mice [2]
  EAE development: worsened the disease

## Clc1cc2c(cc1Cl)Oc1cc(Cl)c(Cl)cc1O2 [TCDD, 2,3,7,8-tetrachlorodibenzo-p-dioxin]
Zebrafish embryos
  IL-17 expression: down regulation
  zFoxp3 expression: dose-dependent increase
EAE mice [2]
  EAE development: complete suppression of EAE
AHR
  expression of the AHR reporter: dose-dependent increases

## O=c1cc(-c2ccccc2)oc2ccc3ccccc3c12 [bNF, beta-naphthoflavone]
T cells
  T cell differentiation into TH17 cells (IL-17 production by real time PCR): same effect

## Oc1ccc(C=Cc2cc(O)cc(O)c2)cc1 [resveratrol]
Naive T cells; AHR antagonist added, FIG. 1I
  effect on FICZ synergism in TH17 differentiation: blocked
